From patent publication US8648058B2, “Diazeniumdiolate cyclopentyl derivatives” (Merck Sharp & Dohme Corp., priority 2010, dated 2014) come the findings set out here.

For this assay, the system named is Male beagle dogs. Description: canine telemetry protocol for blood pressure reduction efficacy. Format: in vivo. The note with it: 3 mg/kg dose, oral gavage, telemetered male beagle dogs; for ΔPP (mm Hg) 1-6 h / ΔPP (mm Hg) 6-12 h / ΔPP (mm Hg) 12-18 h: change from baseline in pulse pressure; for ΔSBP (mm Hg) 1-6 h / ΔSBP (mm Hg) 6-12 h / ΔSBP (mm Hg) 12-18 h: change from baseline in systolic blood pressure. As to the method: Compounds of the invention were evaluated for blood pressure reduction efficacy using the following canine telemetry protocol described below.
Male beagle dogs (approximately 1-3 years old) with a body weight of between 10 and 16 kg were surgically implanted with DSI radiotelemetry devices (model: TL11M2-D70-PCT). Briefly, under an inhalant anesthesia, isoflurane/oxygen mixture (1-3.5%/to effect), the body of the telemetry device was positioned and secured intra-abdominally. Subsequently, the arterial catheter of the telemetry device was passed subcutaneously to the inguinal area and introduced into the femoral artery and advanced to the level of the descending aorta. The catheter was secured with 2-0 silk ligatures. The muscle and underlying fascia was closed over the catheter using absorbable suture and the skin was closed using non-absorbable suture. The animals were allowed a minimum recovery period of 2 weeks between surgery and the evaluation of test compounds.
Compound evaluation consisted of a 3 day paradigm at a 3 mg/kg dose. On the first day, no compounds were administered during a 24 hour period of baseline data collection. Blood pressure and heart rate data were collected continuously for one minute periods at 10 minute intervals. On the days of compound administration half the animals received test article with the other half receiving the vehicle used for compound formulation. All test materials were administered by oral gavage in a volume of 1 mL/kg. Data are expressed either as raw values (mm Hg or beats per minute) or as the change from baseline (average value for about 12 hours in low activity period prior to dosing). Change is SBP (systolic blood pressure) and PP (pulse pressure) over time is shown below: […]

Take `CCN(/[N+]([O-])=N/O[C@@H]1CC[C@@H](C(=O)O)C1)C(C)(C)C` [Example 1, (1R,3R)-3-({[(1Z)-2-tert-butyl-2-ethyl-1-oxido-1λ^5-diazan-1-ylidene]amino}oxy)cyclopentanecarboxylic acid]: the “ΔPP (mm Hg) 1-6 h” value is −7 mm Hg, the “ΔPP (mm Hg) 6-12 h” value is −7 mm Hg, the “ΔPP (mm Hg) 12-18 h” value is −5 mm Hg and the “ΔSBP (mm Hg) 1-6 h” value is recorded as −12 mm Hg. For the same compound, the “ΔSBP (mm Hg) 6-12 h” value is −9 mm Hg and the “ΔSBP (mm Hg) 12-18 h” value was −7 mm Hg.

Consider `CCCN(/[N+]([O-])=N/O[C@@H]1CC[C@@H](C(=O)O)C1)C(C)(C)C` [Example 7, (1R,3R)-3-({[(1Z)-2-tert-butyl-2-propyl-1-oxido-1λ^5-diazan-1-ylidene]amino}oxy)cyclopentanecarboxylic acid], for which the “ΔPP (mm Hg) 1-6 h” value is given as −4 mm Hg, the “ΔPP (mm Hg) 6-12 h” value is on record as −9 mm Hg, the “ΔPP (mm Hg) 12-18 h” value is listed as −8 mm Hg and the “ΔSBP (mm Hg) 1-6 h” value is −9 mm Hg. The “ΔSBP (mm Hg) 6-12 h” value was −11 mm Hg and the “ΔSBP (mm Hg) 12-18 h” value is listed as −10 mm Hg.

As for `CCN(/[N+]([O-])=N/O[C@@H]1CC[C@H](C(=O)O)C1)C(C)(C)C` [Example 18, (1S,3R)-3-({[(1Z)-2-tert-butyl-2-ethyl-1-oxido-1λ^5-diazan-1-ylidene]amino}oxy)cyclopentanecarboxylic acid], the “ΔPP (mm Hg) 1-6 h” value was −14 mm Hg, the “ΔPP (mm Hg) 6-12 h” value is recorded as −10 mm Hg, the “ΔPP (mm Hg) 12-18 h” value is given as −6 mm Hg and the “ΔSBP (mm Hg) 1-6 h” value is given as −18 mm Hg. The “ΔSBP (mm Hg) 6-12 h” value is −10 mm Hg and the “ΔSBP (mm Hg) 12-18 h” value is given as −4 mm Hg.
